Assay results reported in ChEMBL document CHEMBL3425436, “Assessing the oral bioavailability of difluorosialic acid prodrugs, potent viral neuraminidase inhibitors, using a snapshot PK screening assay” (Bioorg Med Chem Lett, 2015).

Experiments:
Mus musculus [1] = experiment: Total plasma concentration in CD1 mouse assessed as (2R,3R,4R,5R,6R)-5-acetamido-4-amino-2,3-difluoro-6-((1R,2R)-1,2,3-trihydroxypropyl)tetrahydro-2H-pyran-2-carboxylic acid at 30 mg/kg, po measured at 60 mins by reversed-phase UPLC/MS analysis; type: ADME, organism-based; parameters: dose 30 mg/kg, route oral; details: in vivo, 1 h
Mus musculus [2] = experiment: Total plasma concentration in CD1 mouse assessed as (2R,3R,4R,5R,6R)-5-acetamido-4-amino-2,3-difluoro-6-((1R,2R)-1,2,3-trihydroxypropyl)tetrahydro-2H-pyran-2-carboxylic acid at 30 mg/kg, po measured at 20 mins by reversed-phase UPLC/MS analysis; type: ADME, organism-based; parameters: dose 30 mg/kg, route oral; details: in vivo

concentration (Mus musculus [1]) | concentration (Mus musculus [2]) | SMILES
3580 nM | 2070 nM | CCOC(=O)[C@]1(F)O[C@@H]([C@H](O)[C@H](O)CO)[C@H](NC(C)=O)[C@@H](N)[C@H]1F
2880 nM | 1030 nM | CC(=O)N[C@@H]1[C@@H](N)[C@@H](F)[C@](F)(C(=O)OC2CCCC2)O[C@H]1[C@H](O)[C@H](O)CO
7110 nM | 3230 nM | CCCCCCCCOC(=O)[C@]1(F)O[C@@H]([C@H](O)[C@H](O)CO)[C@H](NC(C)=O)[C@@H](N)[C@H]1F
3360 nM | 1300 nM | CC(=O)N[C@@H]1[C@@H](N)[C@@H](F)[C@](F)(C(=O)OCCCOC(=O)C(C)(C)C)O[C@H]1[C@H](O)[C@H](O)CO
3770 nM | 1870 nM | CC(=O)N[C@@H]1[C@@H](N)[C@@H](F)[C@](F)(C(=O)OCCCCCOC(=O)C(C)(C)C)O[C@H]1[C@H](O)[C@H](O)CO
3750 nM | 1400 nM | CC(=O)N[C@@H]1[C@@H](N)[C@@H](F)[C@](F)(C(=O)OCCC(=O)N(C)C)O[C@H]1[C@H](O)[C@H](O)CO
3330 nM | 710 nM | CC(=O)N[C@@H]1[C@@H](N)[C@@H](F)[C@](F)(C(N)=O)O[C@H]1[C@H](O)[C@H](O)CO
1390 nM | 690 nM | CC(=O)N[C@@H]1[C@@H](N)[C@@H](F)[C@](F)(C(=O)NCCO)O[C@H]1[C@H](O)[C@H](O)CO
4390 nM | 2550 nM | COC(=O)CNC(=O)[C@]1(F)O[C@@H]([C@H](O)[C@H](O)CO)[C@H](NC(C)=O)[C@@H](N)[C@H]1F
– | 90 nM | COC(=O)OC[C@@H](O)[C@@H](O)[C@@H]1O[C@@](F)(C(=O)OC)[C@H](F)[C@H](N)[C@H]1NC(C)=O

Second part, the compound before the results:

SMILES | concentration (Mus musculus [1]) | concentration (Mus musculus [2])
COC(=O)[C@]1(F)O[C@@H]([C@H](O)[C@H]2COC3(CCCCC3)O2)[C@H](NC(C)=O)[C@@H](N)[C@H]1F | 390 nM | –
CC(=O)N[C@@H]1[C@@H](N)[C@@H](F)[C@](F)(C(=O)NC2CCCCC2)O[C@H]1[C@H](O)[C@H](O)CO | 2150 nM | 1140 nM
CC(=O)N[C@@H]1[C@@H](N)[C@@H](F)[C@](F)(C(=O)NCc2ccccc2F)O[C@H]1[C@H](O)[C@H](O)CO | 840 nM | 660 nM
CC(=O)N[C@@H]1[C@@H](N)[C@@H](F)[C@](F)(C(=O)NCc2cccc(F)c2)O[C@H]1[C@H](O)[C@H](O)CO | 810 nM | 310 nM
CCCCCCCCCCCCOC(=O)[C@]1(F)O[C@@H]([C@H](O)[C@H](O)CO)[C@H](NC(C)=O)[C@@H](N)[C@H]1F | 2920 nM | 440 nM
CC(=O)N[C@@H]1[C@@H](N)[C@@H](F)[C@](F)(C(=O)OCCCCC(F)(F)F)O[C@H]1[C@H](O)[C@H](O)CO | 4020 nM | 2540 nM
CC(=O)N[C@@H]1[C@@H](N)[C@@H](F)[C@](F)(C(=O)OCCCOC(=O)c2ccc3ccccc3c2O)O[C@H]1[C@H](O)[C@H](O)CO | 300 nM | 250 nM
CC(=O)N[C@@H]1[C@@H](N)[C@@H](F)[C@](F)(C(=O)OCCCCCOC(=O)c2ccc3ccccc3c2O)O[C@H]1[C@H](O)[C@H](O)CO | 800 nM | 290 nM
CC(=O)N[C@@H]1[C@@H](N)[C@@H](F)[C@](F)(C(=O)NCc2ccccc2)O[C@H]1[C@H](O)[C@H](O)CO | 590 nM | 270 nM
CCC1(CC)OC[C@H]([C@@H](O)[C@@H]2O[C@@](F)(C(=O)OC)[C@H](F)[C@H](N)[C@H]2NC(C)=O)O1 | 2250 nM | 1950 nM
COC(=O)[C@]1(F)O[C@@H]([C@H](O)[C@H]2COC(C(C)C)(C(C)C)O2)[C@H](NC(C)=O)[C@@H](N)[C@H]1F | 730 nM | 620 nM
COC(=O)[C@]1(F)O[C@@H]([C@H](O)[C@H]2COC3(CCCC3)O2)[C@H](NC(C)=O)[C@@H](N)[C@H]1F | 1690 nM | 490 nM
